# Reference: ChEMBL document CHEMBL5131493, “Synthesis and evaluation of RNase L-binding 2-aminothiophenes as anticancer agents” (Bioorg Med Chem, 2022)
# Activity calls are given as the source filed them. The rule behind the calls is not given here.
# Experiments:
# JAR [1] = assay: Antiproliferative activity against human JAR cells assessed as cell growth inhibition incubated for 72 hrs by MTT assay; type: functional, cell-based
# A549 [2] = assay: Antiproliferative activity against human A549 cells assessed as cell growth inhibition at 10 uM incubated for 72 hrs by MTT assay relative to control; type: functional
# MCF7 [3] = assay: Antiproliferative activity against human MCF7 cells assessed as cell growth inhibition at 10 uM incubated for 72 hrs by MTT assay relative to control; type: functional
# K562 [4] = assay: Antiproliferative activity against human K562 cells assessed as cell growth inhibition incubated for 72 hrs by MTT assay; type: functional, cell-based; conditions: K562, 72 h
# JAR [5] = assay: Antiproliferative activity against human JAR cells assessed as cell growth inhibition at 10 uM incubated for 72 hrs by MTT assay relative to control; type: functional
# Homo sapiens = species on record: Homo sapiens; assay: Binding affinity to RNase L (unknown origin) expressed in Escherichia coli BL21 (DE3) assessed as thermal stability by measuring melting temperature at 60 uM incubated for 50 mins by NanoDSF analysis
# K562 [6] = assay: Antiproliferative activity against human K562 cells assessed as cell growth inhibition at 10 uM incubated for 72 hrs by MTT assay relative to control; type: functional
# A549 [7] = assay: Antiproliferative activity against human A549 cells assessed as cell growth inhibition incubated for 72 hrs by MTT assay; type: functional, cell-based; conditions: A549, 72 h
# MCF7 [8] = assay: Antiproliferative activity against human MCF7 cells assessed as cell growth inhibition incubated for 72 hrs by MTT assay; type: functional, cell-based; conditions: MCF7, 72 h
# JAR [9] = assay: Inhibition of colony formation in human JAR cells measured after 3 days by Giemsa staining based microscopic analysis; type: functional, cell-based; conditions: time 3.0 day, DDE = dose-dependent effect
# JAR [10] = assay: Inhibition of cell migration in human JAR cells at 5 uM measured after 72 hrs by scratch wound healing assay relative to control; type: functional
# JAR [11] = assay: Induction of apoptosis in human JAR cells assessed as fold increase in cleaved PARP level at 10 uM incubated for 24 hrs by Western blot analysis; type: functional
# JAR [12] = assay: Inhibition of colony formation in human JAR cells assessed as cell reproductive death at upto 5 uM measured after 3 days by Giemsa staining based microscopic analysis; type: functional; conditions: time 3.0 day
IC50 (K562 [4]) [µM],ΔTm (Homo sapiens) [°C],IC50 (A549 [7]) [µM],IC50 (MCF7 [8]) [µM],Structure (SMILES),IC50 (JAR [1]) [µM],inhibition at 10 µM (A549 [2]) [%],inhibition at 10 µM (MCF7 [3]) [%],inhibition at 10 µM (JAR [5]) [%],inhibition at 10 µM (K562 [6]) [%],inhibition (JAR [9]),inhibition at 5 µM (JAR [10]) [%],fold change (FC) (JAR [11]),inhibition (JAR [12])
,0.7,,,CCOC(=O)C1=C(Nc2ccccc2)SC(=C2CCCCC2)C1=O,,,,15.5,18.7,,,,
> 100,,,,CCOC(=O)C1=C(Nc2ccccc2)S/C(=C\c2c[nH]c3ccccc23)C1=O,14.1,19.8,25,57.6,,,,,
,0.8,,,CCOC(=O)C1=C(Nc2ccccc2)S/C(=C\c2ccccc2C(F)(F)F)C1=O,,< 10,< 10,29,19.7,,,,
4.5,0.7,17,18.1,CCOC(=O)C1=C(Nc2ccccc2)SC(=C2CCC2)C1=O,8.4,,40.4,70.2,,,,,
16.2,,,,CCOC(=O)C1=C(Nc2ccccc2)S/C(=C\c2cccc(C(=O)O)c2)C1=O,11.7,< 10,< 10,50.6,,,,,
> 100,,,,CCOC(=O)C1=C(Nc2ccccc2)S/C(=C\c2cc3cccnc3[nH]2)C1=O,14.4,16.7,18.2,54.3,,,,,
8.8,,16.9,15.1,CCOC(=O)C1=C(Nc2ccccc2)S/C(=C\c2ccccc2O)C1=O,8,,,89.4,,,,,
71,,> 100,48,CCOC(=O)C1=C(Nc2ccccc2)S/C(=C\c2ccc[nH]2)C1=O,9.5,23.5,18.3,49.2,16.2,,,,
6.6,,13.6,,CCOC(=O)C1=C(Nc2ccccc2)S/C(=C\c2cc3ncccc3[nH]2)C1=O,9.6,,42.2,74.8,,,,,
12.7,,19.1,,CCOC(=O)C1=C(Nc2ccccc2)S/C(=C\c2ccc([N+](=O)[O-])c(O)c2)C1=O,12.7,,41.5,51.2,,,,,
11.6,0.5,47,,CCOC(=O)C1=C(Nc2ccccc2)S/C(=C2\CCN(C(=O)OC(C)(C)C)C2)C1=O,37,,33.8,,,,,,
7,0.8,9.8,13.7,CCOC(=O)C1=C(Nc2ccccc2)S/C(=C\c2ccc(C(F)(F)F)cc2)C1=O,5.9,,41.3,68.7,,,,,
,0.8,,,CCOC(=O)C1=C(Nc2ccccc2)S/C(=C\c2ccccc2)C1=O,,29.6,23.6,20.3,42.9,,,,
5.2,,> 100,25.2,CCOC(=O)C1=C(Nc2ccccc2)S/C(=C\c2ccc(O)c(O)c2)C1=O,6.1,30.7,38.1,48.7,,,,,
,0.6,,,CCOC(=O)C1=C(Nc2ccccc2)S/C(=C\c2ccc(OC)c(O)c2)C1=O,,11,,,,,,,
36.3,,43.2,27.1,CCOC(=O)C1=C(Nc2ccccc2Br)S/C(=C\c2ccc[nH]2)C1=O,8.9,,29.4,62.7,20.5,,,,
,0.5,,,CCOC(=O)C1=C(Nc2ccccc2)S/C(=C\c2cc(OC)ccc2OC)C1=O,,< 10,< 10,38.1,30.7,,,,
46.8,,> 100,30.5,CCOC(=O)C1=C(Nc2ccccc2)S/C(=C\c2ccc(C(=O)OCC)[nH]2)C1=O,10.6,< 10,,60.1,18.6,,,,
31.7,,19.2,,CCOC(=O)C1=C(Nc2ccccc2)S/C(=C\c2cc(OC)c(O)c(OC)c2)C1=O,17.4,19.2,12.9,57.5,,,,,

# More lines, now with the values behind:
Structure (SMILES),IC50 (K562 [4]) [µM],ΔTm (Homo sapiens) [°C],IC50 (A549 [7]) [µM],IC50 (MCF7 [8]) [µM],IC50 (JAR [1]) [µM],inhibition at 10 µM (A549 [2]) [%],inhibition at 10 µM (MCF7 [3]) [%],inhibition at 10 µM (JAR [5]) [%],inhibition at 10 µM (K562 [6]) [%],inhibition (JAR [9]),inhibition at 5 µM (JAR [10]) [%],fold change (FC) (JAR [11]),inhibition (JAR [12])
CCOC(=O)C1=C(Nc2cccc(F)c2)S/C(=C\c2ccc[nH]2)C1=O,> 100,,,,22.6,< 10,< 10,45.4,,,,,
CCOC(=O)C1=C(Nc2ccccc2)S/C(=C\c2cccnc2)C1=O,,1,,,,< 10,< 10,32.1,< 10,,,,
CCOC(=O)C1=C(Nc2ccccc2)SC(=C2CN(C(=O)OC(C)(C)C)C2)C1=O,10.7,0.5,35.8,,23.2,,29.6,,,,,,
CCOC(=O)C1=C(Nc2ccccc2)S/C(=C\c2cc3cnccc3[nH]2)C1=O,,,,,,,,< 10,,,,,
CCOC(=O)C1=C(Nc2ccc([N+](=O)[O-])cc2)S/C(=C\c2ccc[nH]2)C1=O,> 100,,,,15.6,,,54.9,,,,,
CCOC(=O)C1=C(Nc2ccc(C)cc2)S/C(=C\c2ccc[nH]2)C1=O,,,,,,20.9,< 10,< 10,,,,,
CCOC(=O)C1=C(Nc2ccc(Br)cc2)S/C(=C\c2ccc[nH]2)C1=O,,,,,27,< 10,< 10,41.5,17,,,,
CCOC(=O)C1=C(Nc2ccccc2)S/C(=C\c2ccc(O)c(OC)c2)C1=O,10.4,-1.3,> 100,> 100,8.9,24.2,23.2,49.7,,,,,
CCOC(=O)C1=C(Nc2ccccc2)S/C(=C\c2ccc(Br)c(O)c2)C1=O,,,,,,13.6,16.4,39.8,22,,,,
CCOC(=O)C1=C(Nc2ccccc2)S/C(=C\c2ccc(C(=O)O)cc2)C1=O,,,,,,11.6,< 10,16.8,27.5,,,,
CCOC(=O)C1=C(Nc2ccccc2)S/C(=C\c2cccc(O)c2)C1=O,38.7,0.5,,,17,30.6,24.1,51.9,,,,,
CCOC(=O)C1=C(Nc2ccccc2)SC(=C2CCN(C)CC2)C1=O,,,,,,< 10,< 10,< 10,,,,,
CCOC(=O)C1=C(Nc2ccc(CC)cc2)S/C(=C\c2ccc[nH]2)C1=O,,,,,,17.5,,< 10,,,,,
CCOC(=O)C1=C(Nc2ccccc2)S/C(=C\c2ccc(OC)cc2)C1=O,,,,,,17.5,14.7,32.9,9.6,,,,
CCOC(=O)C1=C(Nc2ccccc2)S/C(=C\C2CCCCC2)C1=O,5.9,1.4,18,6.4,3.7,,45.3,95.2,,Dde,42,>1.5,Active
CCOC(=O)C1=C(Nc2ccccc2)S/C(=C\c2cc3ccncc3[nH]2)C1=O,,,,,,17.1,18.2,26.3,22.8,,,,
CCOC(=O)C1=C(Nc2ccc(OC)cc2)S/C(=C\c2ccc[nH]2)C1=O,,,,,,< 10,< 10,27.6,,,,,
CCOC(=O)C1=C(Nc2ccc(C(F)(F)F)cc2)S/C(=C\c2ccc[nH]2)C1=O,,,,,46.8,30.1,19.1,38.5,,,,,
CCOC(=O)C1=C(Nc2cccc(C(F)(F)F)c2)S/C(=C\c2ccc[nH]2)C1=O,> 100,,,,19.7,22.8,22.9,52.9,,,,,
CCOC(=O)C1=C(Nc2cccc([N+](=O)[O-])c2)S/C(=C\c2ccc[nH]2)C1=O,7.2,,23.9,20.7,10.1,,27.4,57.4,,,,,
CCOC(=O)C1=C(Nc2ccc(OC)c(OC)c2)S/C(=C\c2ccc[nH]2)C1=O,,,,,,,,47.9,,,,,
CN1CCN(c2cc3c(cc2[N+](=O)[O-])-c2c(cnn2-c2ccc(C(=O)O)cc2)C(C)(C)O3)CC1,16.5,,> 100,,9.3,,,53.5,,,,,
CCOC(=O)C1=C(Nc2ccc(F)cc2)S/C(=C\c2ccc[nH]2)C1=O,> 100,,,,15.9,< 10,< 10,61.5,,,,,
CCOC(=O)C1=C(Nc2ccccc2)S/C(=C\c2cc[nH]c2)C1=O,,,,,,< 10,< 10,19.5,18.9,,,,
